Source: patent publication US20180258069A1, “NEW CRYSTAL OF PIPERAZINE COMPOUND” (TAIHO PHARMACEUTICAL CO., LTD., priority 2015, published 2018)

Experiments:
[1] = biological target: hematopoietic prostaglandin D synthase (H-PGDS) (Homo sapiens, UniProt O60760); details: disclosed in Patent Document 1; cited from earlier work
[2] = Dynamic vapor sorption (DVS) system analysis (moisture adsorption-desorption test); format: physicochemical; details: 25° C., 5% to 95% RH
Description: Dynamic vapor sorption (DVS) system analysis was performed under the following conditions.
Device: VTI SGA-100, TA Instruments
Sample: about 10 mg Measurement temperature: 25° C. RH steps: 5-95-1% RH by 5% RH
Hygroscopic properties of crystals I and II obtained in the Examples were confirmed by dynamic vapor sorption (DVS) system analysis.
The adsorption and desorption data was collected at 5% RH intervals in a range of relative humidity (RH) of 5% to 95%. Before the measurement, the samples were heated under nitrogen purging to 25° C. at 1° C./min, followed by drying for up to 6 hours until the weight change in 5 minutes became less than 0.0100%. The measurement was performed with equilibration for up to 2 hours until the weight change in 5 minutes became less than 0.0100%.

[3] = Solid stability test (under exposure to light); format: physicochemical; details: for Change of crystal form (powder X-ray crystal analysis): room temperature, after irradiation at 3500000 lux·h (2000 lux×1750 h)
Description: Using crystals I and II obtained in the Examples, the solid stability after storage under exposure to light was measured.
Storage conditions: crystal I was stored at room temperature under exposure to light after being placed in a transparent glass dish covered with a lid. Measurement point: after irradiation at 3500000 lux·h (irradiation at 2000 lux×1750 h)
Storage Container: Transparent Glass Dish
The powder X-ray diffraction upon the storage stability test was measured after an appropriate amount of the test substance was lightly pulverized as necessary using an agate mortar under the following test conditions.
Device: MiniFlex II, Rigaku Corporation
X-ray output power: 15 mA, 30 kV Scanning range: 3.0 to 40.0° Step size: 0.010° Scanning speed: […]. Divergence slit: 1.25° Scatter slit: open Receiving slit: open

[4] = Solid stability test (40° C., under light shielding), chemical purity by HPLC; format: physicochemical
Description: Using crystal I obtained in the Examples, the solid stability after storage at 40° C. under light shielding was measured.
Storage conditions: crystal I was stored at 40° C. after being placed in a light shielding bottle covered with a lid. Measurement points: after 1 month, after 3 months, after 6 months
The amount of analog in the sample solution was measured by HPLC analysis. Handling of the device, including data processing, was performed in accordance with the method and procedures specified for each device (device: 2130-2450, HITACHI).
Column: Mightysil RP-18 GP 150-4.6 (5 μm)
UV detection: 220 nm Column temperature: 40° C. Column flow rate: 1.0 mL/min Mobile phase: A: acetonitrile, B: 10 mM phos. buffer

hematopoietic prostaglandin D synthase (H-PGDS), sequence (O60760 whole entry): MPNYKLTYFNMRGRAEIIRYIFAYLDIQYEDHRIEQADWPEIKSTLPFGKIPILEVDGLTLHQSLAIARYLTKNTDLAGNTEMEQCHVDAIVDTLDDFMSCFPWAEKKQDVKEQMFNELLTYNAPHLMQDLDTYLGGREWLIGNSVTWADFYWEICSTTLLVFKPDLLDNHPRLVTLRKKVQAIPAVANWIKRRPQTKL

In the case of `Cn1cccc1C(=O)N1CCN(C(=O)Nc2ccc(N3CCC(C(=O)N4CCOCC4)CC3)cc2)CC1` [Compound (1), 4-((1-methylpyrrol-2-yl)-carbonyl)-N-(4-(4-morpholin-1-yl-carbonylpiperidin-1-yl)-phenyl)-1-piperazinecarboxamide], the H-PGDS inhibiting effect [1] is listed as “inhibiting effect”.

With `Cn1cccc1C(=O)N1CCN(C(=O)Nc2ccc(N3CCC(C(=O)N4CCOCC4)CC3)cc2)CC1` [crystal I, monohydrate of 4-((1-methylpyrrol-2-yl)-carbonyl)-N-(4-(4-morpholin-1-yl-carbonylpiperidin-1-yl)-phenyl)-1-piperazinecarboxamide] the “Change in weight due to changes in humidity” value [2] was “no changes in weight”, the “Powder X-ray crystal analysis before and after moisture adsorption and desorption” value [2] was “not changed” and the “Chemical purity after long-term storage under exposure to light” value [3] was “not decreased”. The “Change of crystal form (powder X-ray crystal analysis)” value [3] was “not changed”, the “Chemical Purity (%)” value ([4]; After 1 month at 40° C. under light shielding) was 99.8% and the “Chemical Purity (%)” value ([4]; After 3 months at 40° C. under light shielding) was 99.6%. For the same compound, the “Chemical Purity (%)” value ([4]; After 6 months at 40° C. under light shielding) was 99.9%, the “Chemical Purity (%)” value ([4]; Initial Value, before storage) was 99.8% and the “Change of chemical purity after storage” value ([4]; storage at 40° C. under light shielding) was “not changed”.

For `Cn1cccc1C(=O)N1CCN(C(=O)Nc2ccc(N3CCC(C(=O)N4CCOCC4)CC3)cc2)CC1` [crystal II, 4-((1-methylpyrrol-2-yl)-carbonyl)-N-(4-(4-morpholin-1-yl-carbonylpiperidin-1-yl)-phenyl)-1-piperazinecarboxamide], the “Change in weight due to changes in humidity” value [2] was “great change in weight”, the “Powder X-ray crystal analysis before and after moisture adsorption and desorption” value [2] was “not changed” and the “Chemical purity after long-term storage under exposure to light” value [3] was “not decreased”. For the same compound, the “Change of crystal form (powder X-ray crystal analysis)” value [3] was “changed”.
